The results in this text go back to ChEMBL document CHEMBL1201862, “PubChem BioAssay data set” (2004).

What all share (experiment): NCI anticancer screen, dose series, 48 h
Assay [1] deals with XF498.
Assay [2] concerns KM-20L2.
The test system of assay [3] is LXFL 529.
Assay [4] concerns RXF 631.
Assay [5] relates to HOP-18.
The test system of assay [6] is BT-549.
Assay [7] relates to Hs-578T.
Assay [8] relates to NCI/ADR-RES.
In assay [9] the test system is T47D.

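Interpolation was linear, between the two tested concentrations surrounding the appropriate level; five concentrations were tested over 48 hours in 96-well plates. GI50 is the concentration that inhibits growth by half.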 Activity calls are given as the source filed them. No stated cut-off is given here; in the data, active = GI50 up to about 1.1 µM and inactive = higher.

Turning to `COc1ccccc1/C=C1\C(=O)N(C(=O)c2ccc(NC(C)=O)cc2)N=C1C`, the GI50 in assay [1] was > 100 µM (inactive).
With `CCn1c2c(c3ccccc31)C(c1ccccc1)CC1C(=O)N(c3ccccc3)C(=O)C21` (stereo not given), the GI50 in assay [2] is > 100 µM (inactive); in assay [3], 42.8 µM (inactive); in assay [1], 15.8 µM (inactive).
As for `CN1C(c2ccccc2)CC(=NO)CC1c1ccccc1` (stereo not given), the GI50 is 54.6 µM (inactive) in [2], 52.8 µM (inactive) in assay [3] and 48.8 µM (inactive) in assay [4].
For `CN(C(=O)C12C3C4C1C1C2C3C41C#N)C(C)(C)C` (stereo not given) the same measures were > 100 µM (inactive), > 100 µM (inactive) and > 100 µM (inactive).
In the case of `C/C(CC(=O)Nc1cccc(Cl)c1C)=N\N=C(N)N`, the GI50 is > 100 µM (inactive) in [5], 42.6 µM (inactive) in assay [2], > 100 µM (inactive) in [3] and > 100 µM (inactive) in assay [1].
`CCCC(=O)c1ccc2c(ccc(=O)n2C)c1`: the GI50 in [5] is 88.1 µM (inactive); in assay [2], > 100 µM (inactive); in [3] it was 84.5 µM (inactive).
For `O=C1C=C/C(=N\c2ccc3c(c2)C(Br)c2ccccc2-3)O1` (stereo not given), the GI50 in assay [3] is 28.8 µM (inactive).
`COc1ccc2c([nH]c3cc(O)c(C)cc32)c1C=O`: the GI50 in [2], in assay [3] and in assay [1] was > 25 µM (inactive) each time.
In the case of `CCOC(=O)C1C(=O)CC(=O)C2CCCCC21` (stereo not given), the GI50 in assay [3], in [4] and in [1] was > 100 µM (inactive) each time.
As to `CC(C)(C)c1cc(CCCCCCCC2(CCCCCCCc3cc(C(C)(C)C)cc(C(C)(C)C)c3)OC(COCCOCCCCCC#N)C(COCCOCCCCCC#N)O2)cc(C(C)(C)C)c1` (stereo not given), the GI50 in assay [5], in assay [2] and in assay [3] was > 100 µM (inactive) throughout.
As to `CC(=O)O/N=C(Cl)/C(Cl)=N/OC(C)=O`, the GI50 in assay [5], in [2], in assay [3] and in assay [1] was > 100 µM (inactive) throughout.
Take `CC1(C)Cc2cc(C(=O)O)c3c(c2C1=O)COCC3`: the GI50 in assay [5], in [2], in assay [3] and in assay [1] was > 100 µM (inactive) throughout.
With `CN1CCOC(C(NC(=O)c2ccccc2)c2ccccc2)C1=O` (stereo not given), the GI50 in assay [5] and in [2] was > 100 µM (inactive) in each case.
On to `COc1cc(OC)c2c(=O)cc(-c3ccc(OC)c(OC)c3OC)oc2c1`, for which the GI50 is > 100 µM (inactive) in assay [2], 89.5 µM (inactive) in [3] and > 100 µM (inactive) in assay [1].
For `NCP(=O)(O)OCC(=O)O`, the GI50 in [5], in assay [3] and in assay [1] was > 100 µM (inactive) throughout.
For the compound `COc1ccc(/C=C2\CNC/C(=C\c3ccc(OC)cc3)C2=O)cc1`, the GI50 was > 100 µM (inactive) in [5], 24.3 µM (inactive) in assay [2], 21.8 µM (inactive) in [3] and 63.2 µM (inactive) in assay [1].
For `O=c1oc2cc(O)ccc2c2[nH]c3cc(O)ccc3c12` the same measures were 50.5 µM (inactive), 37.2 µM (inactive), 27.1 µM (inactive) and 25.5 µM (inactive).
In the case of `CC(C)(C)C1CCC2c3c([nH]c4ccccc34)C3C(=O)N(c4ccccc4)C(=O)C3C2C1` (stereo not given), the GI50 in [5] is 4.76 µM (inactive); in assay [3] it was 11.3 µM (inactive); in [1], 0.389 µM (active).
For the compound `C=C1C(=O)O[C@H]2[C@H](OC(C)=O)[C@@H](C)CCC/C(C)=C/CC[C@@]3(C)O[C@@H]3C[C@@H]12`, the GI50 in assay [6] was 2.94 µM (inactive); in assay [7], 3.32 µM (inactive); in [8], 1.59 µM (inactive); in assay [9], 1.6 µM (inactive).
With `O=C(C[n+]1ccccc1)NNC(=O)/C(=C/c1ccc2c(c1)OCO2)NC(=O)c1ccccc1`, the GI50 is 34.9 µM (inactive) in [5], > 73.3 µM (inactive) in [2], 38.7 µM (inactive) in [3] and > 41.2 µM (inactive) in assay [1].
For `O=C(O)CSc1cc(-c2ccccc2)nc2ccccc12`, the GI50 is 32 µM (inactive) in [6], 19.4 µM (inactive) in [7], 34.2 µM (inactive) in [8] and 57.9 µM (inactive) in assay [9].
In the case of `O=C(NC1CCCCCC1)C1C(=O)N(C2CCCCCC2)C(=O)/C1=N\O` (stereo not given), the results for the GI50 in [5], in assay [2] and in assay [3] were 48.9 µM (inactive), 23.1 µM (inactive) and 31.8 µM (inactive), respectively.
For `COc1ccc(/C=C2\CC3C4CC=C5C[C@@H](N6CCCC6)CC[C@]5(C)C4CC[C@]3(C)[C@H]2O)cc1OC` (stereo not given in full), the GI50 in assay [6] is 8.87 µM (inactive); in assay [7] it was 11 µM (inactive); in [8] it was 9.02 µM (inactive); in [9] it was 12.2 µM (inactive).
Turning to `COc1cc(Cn2c3ccccc3c3cc(C)c4c(c32)C=CC(C)(CCC=C(C)C)O4)cc2c1[nH]c1ccccc12` (stereo not given) [CHRESTFOLINE C], the results for the GI50 in assay [5], in [2] and in assay [3] were > 100 µM (inactive), > 100 µM (inactive) and 88.5 µM (inactive), respectively.
In the case of `Cc1ccccc1-n1c(=O)nc2n(-c3ccc(C(C)(C)C)cc3)c3ccccc3cc-2c1=O`, the GI50 in [6] was 25.7 µM (inactive); in assay [7], 24.7 µM (inactive); in assay [8], 16.7 µM (inactive); in assay [9], 26.2 µM (inactive).
As to `COc1cc2c(cc1OC)C1(c3ccc(Cl)cc3)ON=C(c3ccccc3)N1CS2` (stereo not given), the GI50 in assay [5], in assay [2], in assay [3] and in assay [4] was > 100 µM (inactive) in each case.
As for `CC(=O)Oc1c(C)c2c(O)c3c1C1=C(OCOC1=C(C)C3=O)/C(C)=C/C(C)(O)C(O)C(C)C(O)C1C(=O)OC(C(C)C1O)C(C)(O)/C=C\C=C(C)C(=O)N2` (stereo not given), the GI50 is 19.7 µM (inactive) in assay [6], 25.7 µM (inactive) in assay [7], 78.3 µM (inactive) in assay [8] and > 100 µM (inactive) in assay [9].
On to `CC1=NN(C(=O)c2ccccc2O)C(=O)/C1=C/c1ccco1`, for which the GI50 is 12.6 µM (inactive) in assay [6]; 15 µM (inactive) in assay [2]; 1.54 µM (inactive) in assay [3]; 4.44 µM (inactive) in [8]; > 100 µM (inactive) in assay [9]; 25.8 µM (inactive) in assay [1].
`O=[N+]([O-])c1cc(/C=N\NS(=O)(=O)c2ccc(Cl)cc2)c(O)c([N+](=O)[O-])c1`: the GI50 in assay [5] is 42.3 µM (inactive); in [2], 28.3 µM (inactive); in assay [3] it was 30.6 µM (inactive); in assay [4], 28.6 µM (inactive).
For `C[N+](C)(C)CC1CCCC(C[N+](C)(C)C)C1O` (stereo not given) the same measures were > 100 µM (inactive), > 100 µM (inactive), > 100 µM (inactive) and > 100 µM (inactive).
For the compound `Brc1ccc2[nH]cc(-c3nc(-c4c[nH]c5ccccc45)cs3)c2c1`, the GI50 in assay [6] was 7.52 µM (inactive); in assay [7], 5.86 µM (inactive); in assay [8], 2.79 µM (inactive); in assay [9], 3.68 µM (inactive).
Turning to `O=C1C(Cl)=C(Cl)C(=O)N1c1ccccc1Cl`, the GI50 in assay [5] was > 100 µM (inactive); in [2] it was > 100 µM (inactive); in assay [3], > 53 µM (inactive); in [1] it was > 100 µM (inactive).
